Where a SMILES comes first, the peptide text is derived from it.

The assay has as its target gastrin/CCK-B receptor (Rattus norvegicus). The assay can be described thus: Inhibitory activity against binding of [125I](Nle11)-HG-13 to gastrin receptor in vitro.
One may read the IC50 as the concentration that gives 50% inhibition. In the case of `CC[C@H](C)[C@H](NC(=O)[C@H](Cc1c[nH]c2ccccc12)NC(=O)OC(C)(C)C)C(=O)N[C@@H](CC(=O)O)C(N)=O` (HELM PEPTIDE1{[CC(C)(C)OC(=O)[*:2]].W.I.D.[am]}$$$$V2.0), the IC50 is 50 µM.

The compound `CC(C)(C)OC(=O)N[C@@H](Cc1c[nH]c2ccccc12)C(=O)N1CCC[C@H]1C(=O)N[C@@H](CC(=O)O)C(N)=O` [3-({1-[2-tert-Butoxycarbonylamino-3-(1H-indol-3-yl)-propionyl]-pyrrolidine-2-carbonyl}-amino)-succinamic acid] (HELM PEPTIDE1{[CC(C)(C)OC(=O)[*:2]].W.P.D.[am]}$$$$V2.0) returned an IC50 of 100 µM.

Compound `CSCC[C@H](NC(=O)[C@H](Cc1c[nH]c2ccccc12)NC(=O)CNC(=O)OC(C)(C)C)C(=O)N[C@@H](CC(=O)O)C(N)=O` [3-{2-[2-(2-tert-Butoxycarbonylamino-acetylamino)-3-(1H-indol-3-yl)-propionylamino]-4-methylsulfanyl-butyrylamino}-succinamic acid] (HELM PEPTIDE1{[CC(C)(C)OC(=O)[*:2]].G.W.M.D.[am]}$$$$V2.0) registered an IC50 of 25 µM.

Regarding `CC(C)C[C@H](NC(=O)[C@H](Cc1c[nH]c2ccccc12)NC(=O)OCc1ccccc1)C(=O)N[C@@H](CC(=O)O)C(N)=O` [3-{2-[2-Benzyloxycarbonylamino-3-(1H-indol-3-yl)-propionylamino]-4-methyl-pentanoylamino}-succinamic acid] (HELM PEPTIDE1{[O=C(OCc1ccccc1)[*:2]].W.L.D.[am]}$$$$V2.0), the IC50 came out at 40 µM.

Compound `CC(C)(C)OC(=O)N[C@@H](Cc1c[nH]c2ccccc12)C(=O)N[C@@H](Cc1ccccc1)C(=O)N[C@@H](CC(=O)O)C(N)=O` [3-{2-[2-tert-Butoxycarbonylamino-3-(1H-indol-3-yl)-propionylamino]-3-phenyl-propionylamino}-succinamic acid] (HELM PEPTIDE1{[CC(C)(C)OC(=O)[*:2]].W.F.D.[am]}$$$$V2.0) displayed an IC50 of 30 µM.

Take `CC(C)C[C@H](NC(=O)[C@H](Cc1c[nH]c2ccccc12)NC(=O)OC(C)(C)C)C(=O)N[C@@H](CC(=O)O)C(=O)N(C)C` [3-{2-[2-tert-Butoxycarbonylamino-3-(1H-indol-3-yl)-propionylamino]-4-methyl-pentanoylamino}-N,N-dimethyl-succinamic acid] (HELM PEPTIDE1{[CC(C)(C)OC(=O)[*:2]].W.L.D.[CN(C)[*:1]]}$$$$V2.0): the IC50 turned out to be 100 µM.

As to `CC(C)CC(NC(=O)[C@H](Cc1c[nH]c2ccccc12)NC(=O)OC(C)(C)C)C(=O)N[C@@H](CC(=O)O)C(N)=O` (some centres not stated) [3-{2-[2-tert-Butoxycarbonylamino-3-(1H-indol-3-yl)-propionylamino]-4-methyl-pentanoylamino}-succinamic acid], the half-inhibitory concentration (IC50) was 50 µM.

On to `CSCC[C@H](NC(=O)[C@H](Cc1c[nH]c2ccccc12)NC(=O)OC(C)(C)C)C(=O)N[C@@H](CC(=O)O)C(N)=O` [3-{2-[2-tert-Butoxycarbonylamino-3-(1H-indol-3-yl)-propionylamino]-4-methylsulfanyl-butyrylamino}-succinamic acid] (HELM PEPTIDE1{[CC(C)(C)OC(=O)[*:2]].W.M.D.[am]}$$$$V2.0), for which the half-inhibitory concentration (IC50) was 30 µM.

Compound `CCCC[C@H](NC(=O)[C@H](Cc1c[nH]c2ccccc12)NC(=O)OC(C)(C)C)C(=O)N[C@@H](CC(=O)O)C(N)=O` [3-{2-[2-tert-Butoxycarbonylamino-3-(1H-indol-3-yl)-propionylamino]-hexanoylamino}-succinamic acid] (HELM PEPTIDE1{[CC(C)(C)OC(=O)[*:2]].W.[Nle].D.[am]}$$$$V2.0) gave a half-maximal inhibitory concentration (IC50) of 30 µM.

Take `CC(C)C[C@H](NC(=O)[C@H](Cc1c[nH]c2ccccc12)NC(=O)OC(C)(C)C)C(=O)N[C@@H](CCC(=O)O)C(N)=O` [4-{2-[2-tert-Butoxycarbonylamino-3-(1H-indol-3-yl)-propionylamino]-4-methyl-pentanoylamino}-4-carbamoyl-butyric acid] (HELM PEPTIDE1{[CC(C)(C)OC(=O)[*:2]].W.L.E.[am]}$$$$V2.0): the IC50 was determined as 20 µM.

In turn, `O=C(N[C@@H](Cc1c[nH]c2ccccc12)C(=O)O)c1ccc(Cl)cc1` [(S)-2-(4-Chloro-benzoylamino)-3-(1H-indol-3-yl)-propionic acid] yielded an IC50 of 250 µM.

Take `CC(C)C[C@H](NC(=O)[C@H](Cc1c[nH]c2ccccc12)NC(=O)OC(C)(C)C)C(=O)N[C@@H](C)C(N)=O` [[1-[1-(1-Carbamoyl-ethylcarbamoyl)-3-methyl-butylcarbamoyl]-2-(1H-indol-3-yl)-ethyl]-carbamic acid tert-butyl ester] (HELM PEPTIDE1{[CC(C)(C)OC(=O)[*:2]].W.L.A.[am]}$$$$V2.0): the IC50 was found to be 150 µM.

The values above are taken from BindingDB's records for doi:10.1021/jm00381a002 (1985).
